From patent US9833497B2, “Human originated EGF domain proteins and use of the same” (CHENGDU SOURCEBIO LIMITED-LIABILITY COMPANY, priority 2013, dated 2017)

Key:
Type in all cases: cell-based
Proteus mirabilis = test: MIC against Gram-negative bacteria: Proteus mirabilis; settings: 5×10^5 CFU/mL; for MIC against P. mirabilis: Proteus mirabilis
Procedure, shortened: (§1)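 LB broth cultures at McFarland 0.5, spun down, resuspended, diluted to 5×10^5 CFU/mL final. Two-fold serial dilutions of purified human EGF domain proteins, triplicate. 37° C, 175 rpm shaking. Endpoint: no visible growth.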

Moraxella catarrhalis = test: MIC against Gram-negative bacteria: Moraxella catarrhalis; settings: 5×10^5 CFU/mL; for MIC against M. catarrhalis: Moraxella catarrhalis
Procedure, shortened: as §1

Serratia marcescens = test: MIC against Gram-negative bacteria: Serratia marcescens; settings: 5×10^5 CFU/mL; for MIC against S. marcescens: Serratia marcescens
Procedure, shortened: as §1

Enterobacter cloacae = test: MIC against Gram-negative bacteria: Enterobacter cloacae; settings: 5×10^5 CFU/mL; for MIC against E. cloacae: Enterobacter cloacae
Procedure, shortened: as §1

Proteus vulgaris = test: MIC against Gram-negative bacteria: Proteus vulgaris; settings: 5×10^5 CFU/mL; for MIC against P. vulgaris: Proteus vulgaris
Procedure, shortened: as §1

Aeromonas hydrophila = test: MIC against Gram-negative bacteria: Aeromonas hydrophila; settings: 5×10^5 CFU/mL; for MIC against A. hydrophila: Aeromonas hydrophila
Procedure, shortened: as §1

Klebsiella pneumonia = test: MIC against Gram-negative bacteria: Klebsiella pneumonia; settings: 5×10^5 CFU/mL; for MIC against K. pneumonia: Klebsiella pneumonia
Procedure, shortened: as §1

E. coli BL21 = test: MIC against Gram-negative bacteria: E. coli BL21; settings: 5×10^5 CFU/mL
Procedure, shortened: as §1

Pseudomonas aeruginosa = test: MIC against Gram-negative bacteria: Pseudomonas aeruginosa; settings: 5×10^5 CFU/mL; for MIC against P. aeruginosa: Pseudomonas aeruginosa
Procedure, shortened: as §1

Citrobacter diversus = test: MIC against Gram-negative bacteria: Citrobacter diversus; settings: 5×10^5 CFU/mL; for MIC against C. diversus: Citrobacter diversus
Procedure, shortened: as §1

E. coli DH5α = test: Antibacterial activity: MIC and growth curve against E. coli DH5α in 96-well plate; settings: minimal inhibitory concentration against E. coli DH5α; 96-well plate, 5×10^5 CFU/mL, 37° C., judged after 8 h
Procedure, shortened: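 Log-phase bacteria (OD600 ~0.5) resuspended in LB at 5×10^5 CFU/mL, exposed to recombinant protein at 50, 25, 12.5 μg/mL final in triplicate, 37 °C shaking at 175 rpm. OD600 read every 30 min; MIC is lowest concentration showing no growth.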

[1] = E. coli BL21, 10 h cultivation at 37° C.
[2] = E. coli BL21, 96-well plate, 37° C., 10 h

## PRT1377 (PASACPGGCGPRELCRAGQCVCVEGFRGPDC; listed as Homo sapiens)
Proteus mirabilis; 10 h cultivation at 37° C.
  MIC against P. mirabilis: 12.5 µg/mL
Moraxella catarrhalis; 10 h cultivation at 37° C.
  MIC against M. catarrhalis: 50 µg/mL
Serratia marcescens; 10 h cultivation at 37° C.
  MIC against S. marcescens: 12.5 µg/mL
Enterobacter cloacae; 10 h cultivation at 37° C.
  MIC against E. cloacae: 12.5 µg/mL
Proteus vulgaris; 10 h cultivation at 37° C.
  MIC against P. vulgaris: 50 µg/mL
Aeromonas hydrophila; 10 h cultivation at 37° C.
  MIC against A. hydrophila: 50 µg/mL
Klebsiella pneumonia; 10 h cultivation at 37° C.
  MIC against K. pneumonia: 50 µg/mL
E. coli BL21; [1]
  MIC against E. coli BL21: 50 µg/mL
Pseudomonas aeruginosa; 10 h cultivation at 37° C.
  MIC against P. aeruginosa: 12.5 µg/mL
Citrobacter diversus; 10 h cultivation at 37° C.
  MIC against C. diversus: 12.5 µg/mL
E. coli DH5α
  MIC: 25 µg/mL

## PRT703 (NCSRLGCQHHCVPTLDGPTCYCNSSFQLQADGKTCK; listed as Homo sapiens)
Proteus mirabilis; 96-well plate, 37° C., 10 h
  MIC P. mirabilis: 25 µg/mL
Moraxella catarrhalis; 96-well plate, 37° C., 10 h
  MIC M. catarrhalis: 50 µg/mL
Serratia marcescens; 96-well plate, 37° C., 10 h
  MIC S. marcescens: 50 µg/mL
Enterobacter cloacae; 96-well plate, 37° C., 10 h
  MIC E. cloacae: 50 µg/mL
Proteus vulgaris; 96-well plate, 37° C., 10 h
  MIC P. vulgaris: 12.5 µg/mL
Aeromonas hydrophila; 96-well plate, 37° C., 10 h
  MIC A. hydrophila: 25 µg/mL
Klebsiella pneumonia; 96-well plate, 37° C., 10 h
  MIC K. pneumonia: 25 µg/mL
E. coli BL21; 96-well plate, 37° C., 10 h
  MIC E. coli BL21: 50 µg/mL
Pseudomonas aeruginosa; 96-well plate, 37° C., 10 h
  MIC P. aeruginosa: 12.5 µg/mL
Citrobacter diversus; 96-well plate, 37° C., 10 h
  MIC C. diversus: 12.5 µg/mL
E. coli DH5α
  MIC: 25 µg/mL

## PRT1320 (PSNPCSHPDRGGCSENAECVPGSLGTHHCTCHKGWSGDGRVCV; listed as Homo sapiens)
Proteus mirabilis; 96-well plate, 37° C., 10 h
  MIC against P. mirabilis: 12.5 µg/mL
Moraxella catarrhalis; 96-well plate, 37° C., 10 h
  MIC against M. catarrhalis: 12.5 µg/mL
Serratia marcescens; 96-well plate, 37° C., 10 h
  MIC against S. marcescens: 12.5 µg/mL
Enterobacter cloacae; 96-well plate, 37° C., 10 h
  MIC against E. cloacae: 25 µg/mL
Proteus vulgaris; 96-well plate, 37° C., 10 h
  MIC against P. vulgaris: 50 µg/mL
Aeromonas hydrophila; 96-well plate, 37° C., 10 h
  MIC against A. hydrophila: 12.5 µg/mL
Klebsiella pneumonia; 96-well plate, 37° C., 10 h
  MIC against K. pneumonia: 12.5 µg/mL
E. coli BL21; [2]
  MIC against E. coli BL21: 12.5 µg/mL
Pseudomonas aeruginosa; 96-well plate, 37° C., 10 h
  MIC against P. aeruginosa: 25 µg/mL
Citrobacter diversus; 96-well plate, 37° C., 10 h
  MIC against C. diversus: 12.5 µg/mL
E. coli DH5α
  MIC: 25 µg/mL

## PRT1271 (DTNECSINNGGCQQVCVNTVGSYECQCHPGYKLHWNKKDCV; listed as Homo sapiens)
Proteus mirabilis; 96-well plate, 37° C., 10 h
  MIC against P. mirabilis: 12.5 µg/mL
Moraxella catarrhalis; 96-well plate, 37° C., 10 h
  MIC against M. catarrhalis: 50 µg/mL
Serratia marcescens; 96-well plate, 37° C., 10 h
  MIC against S. marcescens: 12.5 µg/mL
Enterobacter cloacae; 96-well plate, 37° C., 10 h
  MIC against E. cloacae: 12.5 µg/mL
Proteus vulgaris; 96-well plate, 37° C., 10 h
  MIC against P. vulgaris: 50 µg/mL
Aeromonas hydrophila; 96-well plate, 37° C., 10 h
  MIC against A. hydrophila: 50 µg/mL
Klebsiella pneumonia; 96-well plate, 37° C., 10 h
  MIC against K. pneumonia: 50 µg/mL
E. coli BL21; [2]
  MIC against E. coli BL21: 50 µg/mL
Pseudomonas aeruginosa; 96-well plate, 37° C., 10 h
  MIC against P. aeruginosa: 12.5 µg/mL
Citrobacter diversus; 96-well plate, 37° C., 10 h
  MIC against C. diversus: 12.5 µg/mL
E. coli DH5α
  MIC: 25 µg/mL

## PRT670 (DVDECASRASCPTGLCLNTEGSFACSACENGYWVNEDGTACE; listed as Homo sapiens)
Proteus mirabilis; 96-well plate, 37° C., 10 h
  MIC P. mirabilis: 25 µg/mL
Moraxella catarrhalis; 96-well plate, 37° C., 10 h
  MIC M. catarrhalis: 12.5 µg/mL
Serratia marcescens; 96-well plate, 37° C., 10 h
  MIC S. marcescens: 25 µg/mL
Enterobacter cloacae; 96-well plate, 37° C., 10 h
  MIC E. cloacae: 12.5 µg/mL
Proteus vulgaris; 96-well plate, 37° C., 10 h
  MIC P. vulgaris: 12.5 µg/mL
Aeromonas hydrophila; 96-well plate, 37° C., 10 h
  MIC A. hydrophila: 12.5 µg/mL
Klebsiella pneumonia; 96-well plate, 37° C., 10 h
  MIC K. pneumonia: 12.5 µg/mL
E. coli BL21; 96-well plate, 37° C., 10 h
  MIC E. coli BL21: 12.5 µg/mL
Pseudomonas aeruginosa; 96-well plate, 37° C., 10 h
  MIC P. aeruginosa: 25 µg/mL
Citrobacter diversus; 96-well plate, 37° C., 10 h
  MIC C. diversus: 25 µg/mL
E. coli DH5α
  MIC: 25 µg/mL

## PRT803 (HGKGCQLPCQCRHGASCDPRAGECLCAPGYTGVYCE; listed as Homo sapiens)
Proteus mirabilis; P. mirabilis, 10 h cultivation at 37° C.
  MIC (μg/mL) P. mirabilis: 50 µg/mL
Moraxella catarrhalis; M. catarrhalis, 10 h cultivation at 37° C.
  MIC (μg/mL) M. catarrhalis: 100 µg/mL
Serratia marcescens; S. marcescens, 10 h cultivation at 37° C.
  MIC (μg/mL) S. marcescens: 50 µg/mL
Enterobacter cloacae; E. cloacae, 10 h cultivation at 37° C.
  MIC (μg/mL) E. cloacae: 50 µg/mL
Proteus vulgaris; P. vulgaris, 10 h cultivation at 37° C.
  MIC (μg/mL) P. vulgaris: 12.5 µg/mL
Aeromonas hydrophila; A. hydrophila, 10 h cultivation at 37° C.
  MIC (μg/mL) A. hydrophila: 25 µg/mL
Klebsiella pneumonia; K. pneumonia, 10 h cultivation at 37° C.
  MIC (μg/mL) K. pneumonia: 25 µg/mL
E. coli BL21; [1]
  MIC (μg/mL) E. coli BL21: 50 µg/mL
Pseudomonas aeruginosa; P. aeruginosa, 10 h cultivation at 37° C.
  MIC (μg/mL) P. aeruginosa: 12.5 µg/mL
Citrobacter diversus; C. diversus, 10 h cultivation at 37° C.
  MIC (μg/mL) C. diversus: 25 µg/mL
E. coli DH5α
  MIC: 50 µg/mL

## PRT1265 (DVDECLENNGGCQHTCVNVMGSYECCCKEGFFLSDNQHTCI; listed as Homo sapiens)
Proteus mirabilis; 96-well plate, 37° C., 10 h
  MIC against P. mirabilis: 12.5 µg/mL
Moraxella catarrhalis; 96-well plate, 37° C., 10 h
  MIC against M. catarrhalis: 12.5 µg/mL
Serratia marcescens; 96-well plate, 37° C., 10 h
  MIC against S. marcescens: 12.5 µg/mL
Enterobacter cloacae; 96-well plate, 37° C., 10 h
  MIC against E. cloacae: 25 µg/mL
Proteus vulgaris; 96-well plate, 37° C., 10 h
  MIC against P. vulgaris: 50 µg/mL
Aeromonas hydrophila; 96-well plate, 37° C., 10 h
  MIC against A. hydrophila: 50 µg/mL
Klebsiella pneumonia; 96-well plate, 37° C., 10 h
  MIC against K. pneumonia: 12.5 µg/mL
E. coli BL21; [2]
  MIC against E. coli BL21: 50 µg/mL
Pseudomonas aeruginosa; 96-well plate, 37° C., 10 h
  MIC against P. aeruginosa: 25 µg/mL
Citrobacter diversus; 96-well plate, 37° C., 10 h
  MIC against C. diversus: 25 µg/mL
E. coli DH5α
  MIC: 25 µg/mL
